Laboratory results reported in article PMC9631117, “Epitope length variants balance protective immune responses and viral escape in HIV-1 infection” (Cell Reports, 2022).
“Also recorded” adds a separate entry of the source.

Key:
ERAP1/2 = settings: incubation with ERAP1/2 for 140 min, Figure 1G, result in words
[1] = system: PBMCs isolated from HLA-B*27:05+ patients with chronic HIV-1 infection; assay: Ex vivo IFN-γ ELISpot; type: cell-based, human; settings: PBMCs of ten HLA-B*27:05+ patients, result in words
[2] = system: KK10-specific CTL clone G12C; assay: Competition IFN-γ ELISpot with KK10-specific CTL clone G12C and T2-HLA-B*27:05 cells; type: cell-based, human; settings: result in words; for Effect on IFN-γ release by G12C in response to KK10 at the EC50 concentration: peptide pre-incubated 30 min at 37°C with T2-HLA-B*27:05 cells at molar ratios 1-800 relative to KK10; for Inhibition of the G12C response to KK10 at the amounts produced by proteasomal digestion: comparison of competition ELISpot with the processing data
Description: G12C cells were expanded as described previously([Iversen et al., 2006]) and rested for 2 days in fresh medium supplemented with IL-2 (20 IU/mL) and IL-15 (25 ng/mL) before testing in IFN-γ ELISpot assays (Merck Millipore) ([Tenzer et al., 2009], [2014]). TAP-deficient T2 cells were transfected with HLA-B^∗27:05 to generate T2-HLA-B^∗27:05 cells ([Kuipers et al., 1996]). These cells were used in competition assays to minimize the potentially confounding effects of internally loaded peptides and other HLA class I and class II molecules. […] The EC50 concentration was determined in preliminary ELISpot assays as the concentration required to elicit half-maximal IFN-γ production ([Tenzer et al., 2009], [2014]). Samples were tested in triplicate or quadruplicate. G12C responses were expressed as spot-forming units per 10^6 cells. Standard ex vivo IFN-γ ELISpot assays were performed as described previously ([Tenzer et al., 2009], [2014]).

HLA-B*27:05 = HLA-B*27:05 (Homo sapiens, UniProt P01889, D138H/D201E/E176V/E204Q/G107R/H137Y/K202T/N104T/N87E/Q56L/Q94K/R106L/R155S/R180L/S101D/S121N/S48T/Y140D/Y33H/Y91C); assay: Refolding of epitope-form peptides with HLA-B*27:05 heavy chain and β2m (heterotrimer formation); type: binding; settings: rapid dilution refold, size exclusion, mass spectrometry, result in words
From the text: HLA-B^∗27:05 heavy chain and β2M proteins were expressed and purified as described previously ([Burgess, 2009]; [Tenzer et al., 2009]) and refolded with peptide using a rapid dilution method ([Tsumoto et al., 2003]). Heterotrimeric complexes were purified via size exclusion using a HiLoad 26/600 Superdex 75 pg column fitted to an AKTA Purifier FPLC System (GE Healthcare). Eluent fractions corresponding to absorbance peaks were examined via SDS-PAGE. Heterotrimeric complexes were then purified again via size exclusion using a Superdex 75 10/300 GL column fitted to an AKTA Purifier FPLC System (GE Healthcare). Correctly refolded heterotrimers were concentrated to > 10 mg/mL for crystallization trials using Amicon Ultra-0.5 Centrifugal Filter Units with Ultracel-10 Membranes (Merck Millipore). Optimal protein concentrations were determined for each complex using a PCT Pre-Crystallization Test (Hampton Research). […] Crystallization was carried out using the sitting-drop vapor-diffusion method. Briefly, crystallization screen reagents (Hampton Research) were dispensed into a CrystalQuick 96 Well Sitting Drop Plate (Greiner) using a Hydra eDrop II (Thermo Fisher Scientific), and 10 nL of protein was dispensed as a sitting drop in each well after mixing with 10 nL of the corresponding well buffer using a Microsys Liquid Handler (Cartesian Technologies). Crystal screens were stored at 4°C using a Protein Crystallization Imager (Formulatrix). Crystals obtained from the screens were immersed in reservoir buffer containing 20% glycerol as a cryoprotectant and vitrified at 100 K in liquid nitrogen. X-ray diffraction was carried out on beamlines at the European Synchrotron Radiation Facility, Grenoble, France (www.esrf.eu) or at the Diamond Light Source, Didcot, UK (www.diamond.ac.uk).

TAP = assay: TAP-peptide competitive binding assay; settings: result in words; for Normalized TAP affinity relative to KK10: competitive binding, Figure 1E
KIR3DL1*001 = KIR3DL1*001 binding assay (dextramer staining of KIR3DL1*001-transfected BA/F3 cells); settings: peptide complexed with HLA-B*27:05 dextramer; Figure 7A; result in words
Description: Each line was stained with LIVE/DEAD Fixable Violet (Thermo Fisher Scientific). […] The parental line was used as a control for each condition. Samples were tested in duplicate.

GEIYKRWIILGLNKI [GI15] was tested, and the “ERAP1/2 trimming (reduction in abundance)” value (ERAP1/2) was “trimmed significantly more than other epitope forms”.

KRWI [KI4] was tested, and the “Peptide-specific IFN-γ release (immunogenicity)” value (“Peptide-specific IFN-γ release” below) [1] was “poor immunogenicity”, the “Effect on IFN-γ release by G12C in response to KK10 at the EC50 concentration” value [2] was “less striking than those of the longer minitopes” and the “Formation of heterotrimeric complexes with HLA-B*27:05 heavy chain and β2m in refolds” value (“Formation … in refolds” below) (HLA-B*27:05) was “formation of heterotrimeric complexes; also recorded: refolded inefficiently”. The “Normalized TAP affinity relative to KK10” value (TAP) was “lowest affinities”.

In the case of KRWII [KI5], the “Peptide-specific IFN-γ release” value [1] was “poor immunogenicity”, the “Effect on IFN-γ release by G12C in response to KK10 at the EC50 concentration” value [2] was “less striking than those of the longer minitopes” and the “Formation … in refolds” value (HLA-B*27:05) was “refolded inefficiently”. For the same substance, the “Formation … in refolds” value (HLA-B*27:05; listed as KL5) was “formation of heterotrimeric complexes” and the “Normalized TAP affinity relative to KK10” value (TAP) was “lowest affinities”.

For KRWIIL [KL6], the “Peptide-specific IFN-γ release” value [1] was “poor immunogenicity”, the “Inhibition of the G12C response to KK10 at the amounts produced by proteasomal digestion” value [2] was “more than halve the G12C response to KK10” and the “Normalized TAP affinity relative to KK10” value (TAP) was “exceeded that of the immunodominant HLA-B^∗57:01/B^∗5703-restricted HIV-1 epitope TW10”.

For KRWIILG [KG7], the “Peptide-specific IFN-γ release” value [1] was “poor immunogenicity” and the “Normalized TAP affinity relative to KK10” value (TAP) was “exceeded that of the immunodominant HLA-B^∗57:01/B^∗5703-restricted HIV-1 epitope TW10”.

In the case of KRWIILGL [KL8], the “KIR3DL1 binding relative to KK10” value (KIR3DL1*001) was “Further reductions”, the “Peptide-specific IFN-γ release” value [1] was “Specific IFN-γ release was identified” and the “Inhibition of the G12C response to KK10 at the amounts produced by proteasomal digestion” value [2] was “more than halve the G12C response to KK10”. The “Normalized TAP affinity relative to KK10” value (TAP) was “exceeded that of the immunodominant HLA-B^∗57:01/B^∗5703-restricted HIV-1 epitope TW10” and the “TAP-adjusted production of KK10 epitope forms (predicted relative abundance in the ER)” value (TAP; proteasomal production adjusted for TAP interactions, Figure 1F) was “dominant minitope”.

In the case of KRWIIMGL [KL8-M], the “KIR3DL1 binding relative to KK10” value (KIR3DL1*001) was “marginally increased binding to KIR3DL1”.
